According to US20160346255A1, “METHODS, AGENTS AND COMPOSITIONS FOR TREATMENT OF INFLAMMATORY CONDITIONS” (Betanien Hospital, priority 2014, published 2016):
Non-standard residues stand in square brackets, D forms with d. Residues, ends and D or L forms follow the SMILES beside them. *: point of attachment. dPhe(4-NHCONH2) = NC(=O)Nc1ccc(C[C@@H](N)C(=O)O)cc1; Dihydroorotyl(S) = O=C1C[C@@H](C(=O)*)NC(=O)N1; dPhe(4-Cl) = N[C@H](Cc1ccc(Cl)cc1)C(=O)O; Phe(4-NH2) = Nc1ccc(C[C@H](N)C(=O)O)cc1; d2Nal = N[C@H](Cc1ccc2ccccc2c1)C(=O)O; Lys(iPr) = CC(C)NCCCC[C@H](N)C(=O)O; d3Pal = N[C@H](Cc1cccnc1)C(=O)O

Test system: Patients with Rheumatoid Arthritis
Test: Rheumatoid arthritis patients treated with degarelix: clinical variables
Format: in vivo, human
Text: Examples of Treating Patients with Rheumatoid Arthritis with a GnRH Antagonist [table] […] Examples of Patients with Continued RA Improvement Over Several Weeks Despite Stably Low Levels of LH

[1] = Patient 2, 15 weeks, baseline 17
[2] = Patient 2, 15 weeks, baseline 90

CC(=O)N[C@H](Cc1ccc2ccccc2c1)C(=O)N[C@H](Cc1ccc(Cl)cc1)C(=O)N[C@H](Cc1cccnc1)C(=O)N[C@@H](CO)C(=O)N[C@@H](Cc1ccc(NC(=O)[C@@H]2CC(=O)NC(=O)N2)cc1)C(=O)N[C@H](Cc1ccc(NC(N)=O)cc1)C(=O)N[C@@H](CC(C)C)C(=O)N[C@@H](CCCCNC(C)C)C(=O)N1CCC[C@H]1C(=O)N[C@H](C)C(N)=O [degarelix] (Ac-[d2Nal][dPhe(4-Cl)][d3Pal]S[Phe(4-NH2)](Dihydroorotyl(S))[dPhe(4-NHCONH2)]L[Lys(iPr)]P[dA]-NH2)
Function score (Good <1), final (Patient 1, 28 weeks, baseline 1.25): 1.25, 0 | Morning stiffness, final (Patient 1, 28 weeks, baseline 2.5): 2.5, 0 hrs | Swollen joint count assessed with ultrasound, final (Patient 1, 28 weeks, baseline 6): 6, 0 | Tender joint, final (Patient 1, 28 weeks, baseline 9): 9, 0 | Patient own assessment (0-100), final (Patient 1, 28 weeks, baseline 81): 81, 0 | Physician assessment (0-100), final (Patient 1, 28 weeks, baseline 85): 85, 7 | ACR % Response (Patient 1, treatment duration 28 weeks): 90% | Function score (Good <1), final (Patient 2, 15 weeks, baseline 2.0): 2.0, 0.25 | Morning stiffness, final (Patient 2, 15 weeks, baseline 9): 9, 1 hrs | Swollen joint count assessed with ultrasound, final [1]: 17, 2 | Tender joint, final [1]: 17, 3 | Patient own assessment (0-100), final [2]: 90, 35 | Physician assessment (0-100), final [2]: 90, 40 | ACR % Response (Patient 2, treatment duration 15 weeks): 60% | ACR % Response (Patient 3, 4 wks): 30% | ACR % Response (Patient 3, 8 wks): 40% | Function score (Good <1), final (Patient 3, 12 weeks, baseline 1.75): 1.75, 0.63 | Morning stiffness, final (Patient 3, 12 weeks, baseline 7): 7, ½ | Swollen joint count assessed with ultrasound, final (Patient 3, 12 weeks, baseline 23): 23, 4 | Tender joint, final (Patient 3, 12 weeks, baseline 26): 26, 11 | Patient own assessment (0-100), final (Patient 3, 12 weeks, baseline 50): 50, 30 | Physician assessment (0-100), final (Patient 3, 12 weeks, baseline 90): 90, 30 | ACR % Response (Patient 3, 12 wks): 50% | ACR % Response (Patient 3, treatment duration 12 weeks): 50% | ACR % Response (Patient 4, 3½ wks): 20% | Function score (Good <1), final (Patient 4, 9 weeks, baseline 0.88): 0.88, 0.38 | Morning stiffness, final (Patient 4, 9 weeks, baseline 7): 7, 3 hrs | Swollen joint count assessed with ultrasound, final (Patient 4, 9 weeks, baseline 24): 24, 3 | Tender joint, final (Patient 4, 9 weeks, baseline 28): 28, 11 | Physician assessment (0-100), final (Patient 4, 9 weeks, baseline 80): 80, 40 | Patient own assessment (0-100), final (Patient 4, 9 weeks, baseline 90): 90, 50 | ACR % Response (Patient 4, 9 wks): 50% | ACR % Response (Patient 4, treatment duration 9 weeks): 50% | Function score (Good <1), final (Patient 5, 7 weeks, baseline 1.29): 1.29, 0.88 | Morning stiffness, final (Patient 5, 7 weeks, baseline 2.5): 2.5, ¾ | Swollen joint count assessed with ultrasound, final (Patient 5, 7 weeks, baseline 10): 10, 2 | Tender joint, final (Patient 5, 7 weeks, baseline 12): 12, 0 | Physician assessment (0-100), final (Patient 5, 7 weeks, baseline 70): 70, 20 | Patient own assessment (0-100), final (Patient 5, 7 weeks, baseline 88, footnote: muscular pain in arms): 88, 88^3 | Power Doppler (inflammatory activity) on ultrasound of shoulder and MCP 4 joints (Patient 5, after treatment, power Doppler present before (FIG. 2)): no power Doppler | ACR % Response (Patient 5, treatment duration 7 weeks): 30% | Function score (Good <1), final (Patient 6, 36 weeks, baseline 1.5): 1.5, 0.625 | Morning stiffness, final (Patient 6, 36 weeks, baseline 2): 2, 0 hrs | Swollen joint count assessed with ultrasound, final (Patient 6, 36 weeks, baseline 16): 16, 0 | Tender joint, final (Patient 6, 36 weeks, baseline 24): 24, 0 | Patient own assessment (0-100), final (Patient 6, 36 weeks, baseline 60): 60, 7 | Physician assessment (0-100), final (Patient 6, 36 weeks, baseline 90): 90, 7 | Effusion over the right wrist on ultrasound (Patient 6, by 3.5 weeks of degarelix, large effusion before (FIG. 4)): much smaller | ACR % Response (Patient 6, treatment duration 36 weeks): 80%
